Tested on: Relapsing Experimental Autoimmune Encephalomyelitis (EAE)
Assay: Relapsing Experimental Autoimmune Encephalomyelitis (EAE), vascular casts quantitated by micro computer tomography
Type: in vivo, female Lewis rats
Details: rat relapsing EAE
Text: In Vivo: Relapsing Experimental Autoimmune Encephalomyelitis (EAE)
Disease is induced in female Lewis rats by immunization with guinea pig spinal cord tissue emulsified in complete Freund's adjuvant. […] On day 26 rats are thoracectomized after having been deeply anesthetized with Isoflurane (3%, 20 L/min) and perfused through the left ventricle of the heart. The left ventricle is punctured with a 19 gauge needle from a winged infusion set (SV-19BLK; Termudo, Elkton, Md.), which is connected to an airtight pressurized syringe containing the rinsing solution (NaCl 0.9% with 250,000 U/I heparin at 35° C.). The right atrium is punctured to provide outflow, and the perfusate is infused under a precise controlled pressure of 120 mm Hg. The perfusion is continued for 5 min (at a constant rate of 20 ml/min) followed by a pre-fixation solution (2% performaldehyde in PBS at 35° C.). Finally, up to 30 ml of polyurethane resin (PUII4; Vasqtec, Zürich, Switzerland) is infused at the same rate. After 48 h, the resin-filled brain and spinal cord are excised from the animal and the soft tissue removed by maceration in 7.5% KOH during 24 hr at 50° C. The casts are then thoroughly cleaned with and stored in distilled water before drying by lyophilization. These vascular casts are quantitated using micro computer tomography.

[1] = hydrochloride salt form, daily 0.3 mg/kg p.o.

For `CCCCCCCCc1ccc(CCC(N)(CO)CO)cc1.Cl` [Compound A, 2-amino-2-[2-(4-octylphenyl)ethyl]propane-1,3-diol], the disease-associated neo-angiogenesis (dose of from 0.1 to 20 mg/kg p.o.) was “significantly blocks”, the disease-associated angiogenesis [1] was “fully blocks” and the relapse phases [1] was “completely inhibits”. The “effect on disease-associated angiogenesis and relapse phases, intermittent administration” value (hydrochloride salt form, p.o. 0.3 mg/kg every 2nd or 3rd day or once a week) was “The same effect is obtained”.
